One assay deals with A549. Description: cells. The following applies: Homo sapiens, A549, 72 h.
A further assay relates to NCI-H1975. Kind of assay: cells. Particulars: Homo sapiens, NCI-H1975, 72 h.
The next assay concerns A-431. Kind of assay: cells. The following applies: Homo sapiens, A-431, 72 h.
The subject of a further assay is SGC-7901. Description: cells. Particulars: Homo sapiens, SGC-7901, 72 h.
The next assay concerns HepG2. Description: cells. The following applies: Homo sapiens, HepG2, 72 h.
The subject of another assay is MCF7. Description: cells. Particulars: Homo sapiens, MCF7, 72 h.
The next assay concerns L02. Description: cells. Particulars: Homo sapiens, L02, 72 h.
Assay [1] concerns the target Serine/threonine-protein kinase PLK1 (Homo sapiens, UniProt P53350). Kind of assay: Inhibition of PLK1 (unknown origin).
The test system of assay [2] is PANC-1. Kind of assay: Cell cycle arrest in human PANC-1 cells assessed as accumulation of cells at GO-G1 phase at 2 uM incubated for 24 hrs by PI/RNase staining based flow cytometric analysis. In kind it is functional. (In general: In flow cytometry, cells or beads pass a laser one at a time.)
Assay [3] has as its system PANC-1. Description: Induction of apoptosis in human PANC-1 cells assessed as apoptotic cells at 2 uM incubated for 24 hrs by flow cytometric analysis relative to control. The format is functional.
For the next assay, the system named is HT-29. Description: Induction of apoptosis in human HT-29 cells assessed as apoptotic ratio at 2 uM incubated for 24 hrs by flow cytometric analysis. The format is functional.
For assay [4], the system named is PANC-1. Kind of assay: Induction of apoptosis in human PANC-1 cells assessed as increase in Bax expression at 2 uM incubated for 24 hrs by Western blot analysis. In kind it is functional, cell-based. On the technique in general: Immunoblotting shows a protein as a band on a membrane.
Assay [5] has as its system PANC-1. Description: Induction of apoptosis in human PANC-1 cells assessed as increase in Cytochrome C expression level at 2 uM incubated for 24 hrs by Western blot analysis. The format is functional, cell-based.
Assay [6] has as its system PANC-1. Kind of assay: Induction of apoptosis in human PANC-1 cells assessed as increase in cleaved caspase-9 expression level at 2 uM incubated for 24 hrs by Western blot analysis. The format is functional, cell-based.
In assay [7] the test system is PANC-1. Kind of assay: Induction of apoptosis in human PANC-1 cells assessed as increase in cleaved caspase-3 expression level at 2 uM incubated for 24 hrs by Western blot analysis. The format is functional, cell-based.
The test system of assay [8] is PANC-1. Description: Induction of apoptosis in human PANC-1 cells assessed as increase in cleaved PARP expression level at 2 uM incubated for 24 hrs by Western blot analysis. In kind it is functional, cell-based.

Active and inactive are the calls of the source. No cut-off for these calls is given here. Where only a bound is given, the exact number is not on record here.

Our source for the IC50 and Activity values is ChEMBL document CHEMBL5537193, “Multitargeting HDAC Inhibitors Containing a RAS/RAF Protein Interfering Unit” (J Med Chem, 2024).

Serine/threonine-protein kinase PLK1, sequence (P53350 whole entry): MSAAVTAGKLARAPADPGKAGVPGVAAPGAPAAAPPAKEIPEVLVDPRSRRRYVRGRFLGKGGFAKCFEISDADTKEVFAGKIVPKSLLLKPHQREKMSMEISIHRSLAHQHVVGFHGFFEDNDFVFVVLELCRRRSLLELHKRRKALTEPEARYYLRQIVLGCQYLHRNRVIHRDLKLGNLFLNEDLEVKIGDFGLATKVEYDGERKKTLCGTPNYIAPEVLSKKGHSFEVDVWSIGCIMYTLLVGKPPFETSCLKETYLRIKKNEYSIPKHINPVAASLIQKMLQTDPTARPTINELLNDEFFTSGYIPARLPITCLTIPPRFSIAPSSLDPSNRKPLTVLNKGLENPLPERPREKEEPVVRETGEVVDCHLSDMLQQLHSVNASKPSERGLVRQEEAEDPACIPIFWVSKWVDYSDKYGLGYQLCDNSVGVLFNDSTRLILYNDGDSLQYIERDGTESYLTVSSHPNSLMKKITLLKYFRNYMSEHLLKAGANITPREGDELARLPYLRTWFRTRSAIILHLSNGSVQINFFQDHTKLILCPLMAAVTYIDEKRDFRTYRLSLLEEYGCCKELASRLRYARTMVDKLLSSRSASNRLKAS
Description for A-431: Cytotoxicity against human A-431 cells assessed as inhibition of cell growth incubated for 72 hrs by MTT assay
Description for A549: Cytotoxicity against human A549 cells assessed as inhibition of cell growth incubated for 72 hrs by MTT assay
Description for HepG2: Cytotoxicity against human HepG2 cells assessed as inhibition of cell growth incubated for 72 hrs by MTT assay
Description for L02: Cytotoxicity against human L02 cells assessed as inhibition of cell growth incubated for 72 hrs by MTT assay
Description for MCF7: Cytotoxicity against human MCF7 cells assessed as inhibition of cell growth incubated for 72 hrs by MTT assay
Description for NCI-H1975: Cytotoxicity against human NCI-H1975 cells assessed as inhibition of cell growth incubated for 72 hrs by MTT assay
Description for SGC-7901: Cytotoxicity against human SGC-7901 cells assessed as inhibition of cell growth incubated for 72 hrs by MTT assay

Take `COc1cc(OC)c(/C=C/S(=O)(=O)Cc2ccc(OC)c(NCCCCCC(=O)NO)c2)c(OC)c1`: the IC50 (as a rule, the midpoint of a concentration-inhibition curve) with A549 worked out at 6.02 µM; in the assay with NCI-H1975, 5.08 µM; with A-431 it was 4.64 µM; in the assay with SGC-7901, 4.92 µM; in the assay on HepG2, 4.64 µM; in the assay with MCF7 it was 7.56 µM. Moreover, the concentration for half-maximal inhibition (IC50) in the assay on L02 was above 40 µM.
For the compound `COc1cc(OC)c(/C=C/S(=O)(=O)Cc2ccc(OC)c(NC(=O)CCCCC(=O)Nc3ccccc3N)c2)c(OC)c1`, the IC50 in the assay on A549 was found to be 16.7 µM; in the assay with NCI-H1975, 18.8 µM; in the assay on A-431, 20.6 µM; with SGC-7901, 17.2 µM; with HepG2, 27.4 µM; in the assay with MCF7 it was 11.7 µM. The IC50 in the assay with L02 was above 40 µM.
As to `COc1cc(OC)c(/C=C/S(=O)(=O)Cc2ccc(OC)c(NCCCCCC(=O)Nc3ccccc3N)c2)c(OC)c1`, the IC50 in the assay on A549 was 12.8 µM; in the assay with NCI-H1975, 4.75 µM; with A-431, 4.47 µM; in the assay with SGC-7901 it was 8.89 µM; in the assay on HepG2, 7.54 µM; with MCF7, 10.5 µM. In the assay on L02, this compound showed an IC50 above 40 µM.
As for `COc1cc(OC)c(/C=C/S(=O)(=O)Cc2ccc(OC)c(NC(=O)CCCCC(=O)NO)c2)c(OC)c1`, the IC50 with A549 worked out at 8.56 µM; in the assay on NCI-H1975 it was 9.48 µM; in the assay on A-431 it was 18.8 µM; in the assay on SGC-7901, 12.3 µM; in the assay with HepG2 it was 29.1 µM; in the assay with MCF7 it was 9.68 µM. In addition, the IC50 in the assay with L02 was above 40 µM.
Take `COc1cc(OC)c(/C=C/S(=O)(=O)Cc2ccc(OC)c(NC(=O)CCCC(=O)Nc3ccccc3N)c2)c(OC)c1`: the IC50 worked out at 35.5 µM with A549; 8.45 µM with NCI-H1975; 4.11 µM in the assay with A-431; 31.9 µM with SGC-7901; 18.6 µM with HepG2; 17.7 µM in the assay with MCF7. Further, in the assay with L02, the IC50 was above 40 µM.
Consider `COc1cc(OC)c(/C=C/S(=O)(=O)Cc2ccc(OC)c(NCCC(=O)Nc3ccccc3N)c2)c(OC)c1`, for which the IC50 came to 11.3 µM in the assay on A549; 5.11 µM with NCI-H1975; 8.69 µM in the assay on A-431; 13.2 µM with SGC-7901; 7.3 µM with HepG2; 12.6 µM in the assay with MCF7. In the assay with L02, this compound registered an IC50 above 40 µM.
Regarding `O=C(CCCCCCC(=O)Nc1ccccc1)NO` [VORINOSTAT], the figures for the IC50 (in [1]; in the assay on SGC-7901) were 1.6 µM and 2.89 µM, respectively. The result with PANC-1 [2], in the assay on PANC-1 [4], in the assay with PANC-1 [5], with PANC-1 [6], with PANC-1 [7] and in the assay on PANC-1 [8] was Active. For the same compound, the Activity amounted to 20.5% in the assay with PANC-1 [3] and 21.4% in the assay with HT-29.
Regarding `COc1cc(OC)c(/C=C/S(=O)(=O)Cc2ccc(OC)c(NC(=O)CCC(=O)Nc3ccccc3N)c2)c(OC)c1`, the IC50 in the assay on A549 came out at 7.41 µM; in the assay with NCI-H1975 it was 2.58 µM; with A-431, 1.26 µM; in the assay with SGC-7901, 6.6 µM; in the assay with HepG2 it was 12.3 µM; with MCF7, 13.2 µM. The IC50 in the assay with L02 was above 40 µM.
As for `COc1cc(OC)c(/C=C/S(=O)(=O)Cc2ccc(OC)c(NCC(=O)Nc3ccccc3N)c2)c(OC)c1`, the IC50 was 3.67 µM in the assay on A549; 2.18 µM in the assay on NCI-H1975; 4.14 µM with A-431; 4.98 µM in the assay with SGC-7901; 4.75 µM in the assay with HepG2; 4.94 µM in the assay with MCF7. This compound registered an IC50 with L02 above 40 µM.
Turning to `COc1cc(OC)c(/C=C/S(=O)(=O)Cc2ccc(OC)c(NC(=O)CCCC(=O)NO)c2)c(OC)c1`, the IC50 in the assay with A549 was determined as 1.74 µM; in the assay on NCI-H1975, 0.67 µM; in the assay on A-431, 11.4 µM; in the assay on SGC-7901, 1.87 µM; in the assay with HepG2, 5.89 µM; with MCF7, 3.78 µM. The compound further showed a 50% inhibitory concentration (IC50) in the assay on L02 above 40 µM.
With `COc1cc(OC)c(/C=C/S(=O)(=O)Cc2ccc(OC)c(NCCC(=O)NO)c2)c(OC)c1`, the IC50 in the assay with A549 is 9.35 µM; in the assay on NCI-H1975, 3.95 µM; in the assay on A-431 it was 2.03 µM; with SGC-7901, 5.46 µM; in the assay on HepG2, 15 µM; with MCF7, 5.45 µM. The same compound gave an IC50 in the assay on L02 above 40 µM.
